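Assay format: 96-well plates, 48-hour exposure. Definition used: TGI = concentration required for complete inhibition of growth.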
test system: SK-MEL-5 melanoma; assay: DTP human tumour cell line panel, 48 h

Compound	TGI
O=C(O)CNC(=O)c1ccc([As](=O)(O)O)cc1	> 100 µM
CCN(CC)CCCn1c(=O)c2cccnc2n2c3c(=O)n(C)c(=O)n(C)c3nc12	> 100 µM

test system: OVCAR-8 ovarian; assay: DTP human tumour cell line panel, 48 h

Compound	TGI
O=C1NC(=S)NC(=O)C1C(c1ccccc1[N+](=O)[O-])C1C(=O)NC(=S)NC1=O	> 100 µM
CC(C)c1c(P(=O)(c2ccccc2)c2ccccc2)n(C)c2ccccc12	> 100 µM
O=C(O)CNC(=O)c1ccc([As](=O)(O)O)cc1	> 100 µM
CCN(CC)CCCn1c(=O)c2cccnc2n2c3c(=O)n(C)c(=O)n(C)c3nc12	> 100 µM

test system: SK-MEL-2 melanoma; assay: DTP human tumour cell line panel, 48 h

Compound	TGI
O=C1NC(=S)NC(=O)C1C(c1ccccc1[N+](=O)[O-])C1C(=O)NC(=S)NC1=O	> 100 µM
CC(C)c1c(P(=O)(c2ccccc2)c2ccccc2)n(C)c2ccccc12	> 100 µM
O=C(O)CNC(=O)c1ccc([As](=O)(O)O)cc1	> 100 µM
CCN(CC)CCCn1c(=O)c2cccnc2n2c3c(=O)n(C)c(=O)n(C)c3nc12	> 100 µM

test system: NCI-H23 lung; assay: DTP human tumour cell line panel, 48 h

Compound	TGI
O=C1NC(=S)NC(=O)C1C(c1ccccc1[N+](=O)[O-])C1C(=O)NC(=S)NC1=O	> 100 µM
CC(C)c1c(P(=O)(c2ccccc2)c2ccccc2)n(C)c2ccccc12	> 100 µM
O=C(O)CNC(=O)c1ccc([As](=O)(O)O)cc1	> 100 µM
CCN(CC)CCCn1c(=O)c2cccnc2n2c3c(=O)n(C)c(=O)n(C)c3nc12	> 100 µM

test system: NCI-H226 lung; assay: DTP human tumour cell line panel, 48 h

Compound	TGI
O=C1NC(=S)NC(=O)C1C(c1ccccc1[N+](=O)[O-])C1C(=O)NC(=S)NC1=O	> 100 µM
CC(C)c1c(P(=O)(c2ccccc2)c2ccccc2)n(C)c2ccccc12	> 100 µM
O=C(O)CNC(=O)c1ccc([As](=O)(O)O)cc1	> 100 µM
CCN(CC)CCCn1c(=O)c2cccnc2n2c3c(=O)n(C)c(=O)n(C)c3nc12	> 100 µM

test system: MALME-3M melanoma; assay: DTP human tumour cell line panel, 48 h

Compound	TGI
O=C1NC(=S)NC(=O)C1C(c1ccccc1[N+](=O)[O-])C1C(=O)NC(=S)NC1=O	> 100 µM
CC(C)c1c(P(=O)(c2ccccc2)c2ccccc2)n(C)c2ccccc12	> 100 µM
O=C(O)CNC(=O)c1ccc([As](=O)(O)O)cc1	> 100 µM
CCN(CC)CCCn1c(=O)c2cccnc2n2c3c(=O)n(C)c(=O)n(C)c3nc12	> 100 µM

test system: A498 renal; assay: DTP human tumour cell line panel, 48 h

Compound	TGI
O=C1NC(=S)NC(=O)C1C(c1ccccc1[N+](=O)[O-])C1C(=O)NC(=S)NC1=O	> 100 µM
CC(C)c1c(P(=O)(c2ccccc2)c2ccccc2)n(C)c2ccccc12	> 100 µM
O=C(O)CNC(=O)c1ccc([As](=O)(O)O)cc1	> 100 µM

test system: LOX IMVI melanoma; assay: DTP human tumour cell line panel, 48 h

Compound	TGI
O=C1NC(=S)NC(=O)C1C(c1ccccc1[N+](=O)[O-])C1C(=O)NC(=S)NC1=O	> 100 µM
CC(C)c1c(P(=O)(c2ccccc2)c2ccccc2)n(C)c2ccccc12	> 100 µM
O=C(O)CNC(=O)c1ccc([As](=O)(O)O)cc1	> 100 µM
CCN(CC)CCCn1c(=O)c2cccnc2n2c3c(=O)n(C)c(=O)n(C)c3nc12	> 100 µM

test system: CCRF-CEM leukemia; assay: DTP human tumour cell line panel, 48 h

Compound	TGI
O=C1NC(=S)NC(=O)C1C(c1ccccc1[N+](=O)[O-])C1C(=O)NC(=S)NC1=O	> 100 µM
CC(C)c1c(P(=O)(c2ccccc2)c2ccccc2)n(C)c2ccccc12	> 100 µM
O=C(O)CNC(=O)c1ccc([As](=O)(O)O)cc1	> 100 µM
CCN(CC)CCCn1c(=O)c2cccnc2n2c3c(=O)n(C)c(=O)n(C)c3nc12	> 100 µM

test system: CAKI-1 renal; assay: DTP human tumour cell line panel, 48 h

Compound	TGI
O=C1NC(=S)NC(=O)C1C(c1ccccc1[N+](=O)[O-])C1C(=O)NC(=S)NC1=O	> 100 µM
O=C(O)CNC(=O)c1ccc([As](=O)(O)O)cc1	> 100 µM
CCN(CC)CCCn1c(=O)c2cccnc2n2c3c(=O)n(C)c(=O)n(C)c3nc12	> 100 µM

test system: HL-60(TB) leukemia; assay: DTP human tumour cell line panel, 48 h

Compound	TGI
O=C1NC(=S)NC(=O)C1C(c1ccccc1[N+](=O)[O-])C1C(=O)NC(=S)NC1=O	> 100 µM
CC(C)c1c(P(=O)(c2ccccc2)c2ccccc2)n(C)c2ccccc12	96.9 µM
O=C(O)CNC(=O)c1ccc([As](=O)(O)O)cc1	> 100 µM
CCN(CC)CCCn1c(=O)c2cccnc2n2c3c(=O)n(C)c(=O)n(C)c3nc12	> 100 µM

test system: IGROV1 ovarian; assay: DTP human tumour cell line panel, 48 h

Compound	TGI
O=C(O)CNC(=O)c1ccc([As](=O)(O)O)cc1	> 100 µM
CCN(CC)CCCn1c(=O)c2cccnc2n2c3c(=O)n(C)c(=O)n(C)c3nc12	> 100 µM

test system: U251 CNS; assay: DTP human tumour cell line panel, 48 h

Compound	TGI
O=C1NC(=S)NC(=O)C1C(c1ccccc1[N+](=O)[O-])C1C(=O)NC(=S)NC1=O	> 100 µM
CC(C)c1c(P(=O)(c2ccccc2)c2ccccc2)n(C)c2ccccc12	> 100 µM
O=C(O)CNC(=O)c1ccc([As](=O)(O)O)cc1	> 100 µM
CCN(CC)CCCn1c(=O)c2cccnc2n2c3c(=O)n(C)c(=O)n(C)c3nc12	> 100 µM

test system: M14 melanoma; assay: DTP human tumour cell line panel, 48 h

Compound	TGI
O=C1NC(=S)NC(=O)C1C(c1ccccc1[N+](=O)[O-])C1C(=O)NC(=S)NC1=O	> 100 µM
CC(C)c1c(P(=O)(c2ccccc2)c2ccccc2)n(C)c2ccccc12	> 100 µM
O=C(O)CNC(=O)c1ccc([As](=O)(O)O)cc1	> 100 µM
CCN(CC)CCCn1c(=O)c2cccnc2n2c3c(=O)n(C)c(=O)n(C)c3nc12	> 100 µM

test system: COLO 205 colon; assay: DTP human tumour cell line panel, 48 h

Compound	TGI
O=C1NC(=S)NC(=O)C1C(c1ccccc1[N+](=O)[O-])C1C(=O)NC(=S)NC1=O	> 100 µM
CC(C)c1c(P(=O)(c2ccccc2)c2ccccc2)n(C)c2ccccc12	> 100 µM
O=C(O)CNC(=O)c1ccc([As](=O)(O)O)cc1	> 100 µM
CCN(CC)CCCn1c(=O)c2cccnc2n2c3c(=O)n(C)c(=O)n(C)c3nc12	> 100 µM

test system: ACHN renal; assay: DTP human tumour cell line panel, 48 h

Compound	TGI
O=C1NC(=S)NC(=O)C1C(c1ccccc1[N+](=O)[O-])C1C(=O)NC(=S)NC1=O	> 100 µM
CC(C)c1c(P(=O)(c2ccccc2)c2ccccc2)n(C)c2ccccc12	> 100 µM
O=C(O)CNC(=O)c1ccc([As](=O)(O)O)cc1	> 100 µM
CCN(CC)CCCn1c(=O)c2cccnc2n2c3c(=O)n(C)c(=O)n(C)c3nc12	> 100 µM

test system: OVCAR-4 ovarian; assay: DTP human tumour cell line panel, 48 h

Compound	TGI
O=C1NC(=S)NC(=O)C1C(c1ccccc1[N+](=O)[O-])C1C(=O)NC(=S)NC1=O	> 100 µM
CC(C)c1c(P(=O)(c2ccccc2)c2ccccc2)n(C)c2ccccc12	> 100 µM
O=C(O)CNC(=O)c1ccc([As](=O)(O)O)cc1	> 100 µM
CCN(CC)CCCn1c(=O)c2cccnc2n2c3c(=O)n(C)c(=O)n(C)c3nc12	> 100 µM

test system: SK-OV-3 ovarian; assay: DTP human tumour cell line panel, 48 h

Compound	TGI
O=C(O)CNC(=O)c1ccc([As](=O)(O)O)cc1	> 100 µM
CCN(CC)CCCn1c(=O)c2cccnc2n2c3c(=O)n(C)c(=O)n(C)c3nc12	> 100 µM

test system: OVCAR-3 ovarian; assay: DTP human tumour cell line panel, 48 h

Compound	TGI
O=C1NC(=S)NC(=O)C1C(c1ccccc1[N+](=O)[O-])C1C(=O)NC(=S)NC1=O	> 100 µM
CC(C)c1c(P(=O)(c2ccccc2)c2ccccc2)n(C)c2ccccc12	> 100 µM
O=C(O)CNC(=O)c1ccc([As](=O)(O)O)cc1	> 100 µM
CCN(CC)CCCn1c(=O)c2cccnc2n2c3c(=O)n(C)c(=O)n(C)c3nc12	> 100 µM

test system: HOP-92 NSCLC; assay: DTP human tumour cell line panel, 48 h

Compound	TGI
O=C1NC(=S)NC(=O)C1C(c1ccccc1[N+](=O)[O-])C1C(=O)NC(=S)NC1=O	> 100 µM
CC(C)c1c(P(=O)(c2ccccc2)c2ccccc2)n(C)c2ccccc12	> 100 µM
O=C(O)CNC(=O)c1ccc([As](=O)(O)O)cc1	> 100 µM
CCN(CC)CCCn1c(=O)c2cccnc2n2c3c(=O)n(C)c(=O)n(C)c3nc12	> 100 µM

test system: HCT-116 colon; assay: DTP human tumour cell line panel, 48 h

Compound	TGI
O=C1NC(=S)NC(=O)C1C(c1ccccc1[N+](=O)[O-])C1C(=O)NC(=S)NC1=O	> 100 µM
CC(C)c1c(P(=O)(c2ccccc2)c2ccccc2)n(C)c2ccccc12	> 100 µM
O=C(O)CNC(=O)c1ccc([As](=O)(O)O)cc1	> 100 µM
CCN(CC)CCCn1c(=O)c2cccnc2n2c3c(=O)n(C)c(=O)n(C)c3nc12	> 100 µM

test system: SK-MEL-28 melanoma; assay: DTP human tumour cell line panel, 48 h

Compound	TGI
O=C1NC(=S)NC(=O)C1C(c1ccccc1[N+](=O)[O-])C1C(=O)NC(=S)NC1=O	> 100 µM
CC(C)c1c(P(=O)(c2ccccc2)c2ccccc2)n(C)c2ccccc12	> 100 µM
O=C(O)CNC(=O)c1ccc([As](=O)(O)O)cc1	> 100 µM
CCN(CC)CCCn1c(=O)c2cccnc2n2c3c(=O)n(C)c(=O)n(C)c3nc12	> 100 µM

test system: NCI-H522 lung; assay: DTP human tumour cell line panel, 48 h

Compound	TGI
O=C1NC(=S)NC(=O)C1C(c1ccccc1[N+](=O)[O-])C1C(=O)NC(=S)NC1=O	> 100 µM
CC(C)c1c(P(=O)(c2ccccc2)c2ccccc2)n(C)c2ccccc12	> 100 µM
O=C(O)CNC(=O)c1ccc([As](=O)(O)O)cc1	> 100 µM
CCN(CC)CCCn1c(=O)c2cccnc2n2c3c(=O)n(C)c(=O)n(C)c3nc12	> 100 µM

test system: HCT-15 colon; assay: DTP human tumour cell line panel, 48 h

Compound	TGI
O=C1NC(=S)NC(=O)C1C(c1ccccc1[N+](=O)[O-])C1C(=O)NC(=S)NC1=O	> 100 µM
CC(C)c1c(P(=O)(c2ccccc2)c2ccccc2)n(C)c2ccccc12	> 100 µM
O=C(O)CNC(=O)c1ccc([As](=O)(O)O)cc1	> 100 µM
CCN(CC)CCCn1c(=O)c2cccnc2n2c3c(=O)n(C)c(=O)n(C)c3nc12	> 100 µM

test system: MDA-MB-231 breast; assay: DTP human tumour cell line panel, 48 h

Compound	TGI
O=C1NC(=S)NC(=O)C1C(c1ccccc1[N+](=O)[O-])C1C(=O)NC(=S)NC1=O	> 100 µM
CC(C)c1c(P(=O)(c2ccccc2)c2ccccc2)n(C)c2ccccc12	> 100 µM
O=C(O)CNC(=O)c1ccc([As](=O)(O)O)cc1	> 100 µM
CCN(CC)CCCn1c(=O)c2cccnc2n2c3c(=O)n(C)c(=O)n(C)c3nc12	> 100 µM

test system: MDA-MB-435; assay: DTP human tumour cell line panel, 48 h

Compound	TGI
O=C1NC(=S)NC(=O)C1C(c1ccccc1[N+](=O)[O-])C1C(=O)NC(=S)NC1=O	> 100 µM
CC(C)c1c(P(=O)(c2ccccc2)c2ccccc2)n(C)c2ccccc12	> 100 µM
O=C(O)CNC(=O)c1ccc([As](=O)(O)O)cc1	> 100 µM
CCN(CC)CCCn1c(=O)c2cccnc2n2c3c(=O)n(C)c(=O)n(C)c3nc12	> 100 µM

test system: A549 NSCLC; assay: DTP human tumour cell line panel, 48 h

Compound	TGI
O=C1NC(=S)NC(=O)C1C(c1ccccc1[N+](=O)[O-])C1C(=O)NC(=S)NC1=O	> 100 µM
CC(C)c1c(P(=O)(c2ccccc2)c2ccccc2)n(C)c2ccccc12	> 100 µM
O=C(O)CNC(=O)c1ccc([As](=O)(O)O)cc1	> 100 µM
CCN(CC)CCCn1c(=O)c2cccnc2n2c3c(=O)n(C)c(=O)n(C)c3nc12	> 100 µM

test system: EKVX NSCLC; assay: DTP human tumour cell line panel, 48 h

Compound	TGI
CC(C)c1c(P(=O)(c2ccccc2)c2ccccc2)n(C)c2ccccc12	> 100 µM
O=C(O)CNC(=O)c1ccc([As](=O)(O)O)cc1	> 100 µM
CCN(CC)CCCn1c(=O)c2cccnc2n2c3c(=O)n(C)c(=O)n(C)c3nc12	> 100 µM

test system: NCI/ADR-RES ovarian; assay: DTP human tumour cell line panel, 48 h

Compound	TGI
O=C1NC(=S)NC(=O)C1C(c1ccccc1[N+](=O)[O-])C1C(=O)NC(=S)NC1=O	> 100 µM
CC(C)c1c(P(=O)(c2ccccc2)c2ccccc2)n(C)c2ccccc12	> 100 µM
O=C(O)CNC(=O)c1ccc([As](=O)(O)O)cc1	> 100 µM
CCN(CC)CCCn1c(=O)c2cccnc2n2c3c(=O)n(C)c(=O)n(C)c3nc12	> 100 µM

test system: SF-539 CNS; assay: DTP human tumour cell line panel, 48 h

Compound	TGI
CC(C)c1c(P(=O)(c2ccccc2)c2ccccc2)n(C)c2ccccc12	> 100 µM
CCN(CC)CCCn1c(=O)c2cccnc2n2c3c(=O)n(C)c(=O)n(C)c3nc12	> 100 µM

Reference: PubChem BioAssay (NCI)
